Results as given in patent US12077503B2, “Substituted cyclic amides and their use as herbicides” (FMC CORPORATION, priority 2015, dated 2024).

Tests used:
Type in all cases: in vivo
[1] = test system: giant foxtail (Setaria faberi); experiment: Test G Pre-Emergence Protocol; conditions: Setaria faberi, pre-emergence, 312 h, evaluated after 13 days; for pest or weed control at 15.625 g/ha: 15.625 g ai/ha; for pest or weed control at 15.625 g/ha / pest or weed control at 250 g/ha: read-out: Foxtail, Giant damage rating (100=total damage to plant; 0=no damage to plant); for pest or weed control at 62.5 g/ha: 62.5 g ai/ha, 100=total damage to plant, 0=no damage to plant, read-out: plant damage rating, Foxtail, Giant; for pest or weed control at 250 g/ha: 250 g ai/ha
Procedure, shortened: (§1)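 Pre-emergence spray, 15.625/62.5/250 g/ha, vehicle acetone:water 50:50 + 0.5% Tween 20, applied 1 d after sowing. Glasshouse 24/16° C, 14 h light, 65% RH, watered twice daily. Visual damage rating at 13 d, 0–100 scale.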

[2] = test system: velvetleaf (Abutilon theophrasti); experiment: Test G Pre-Emergence Protocol; conditions: Abutilon theophrasti, pre-emergence, 312 h, evaluated after 13 days; for pest or weed control at 15.625 g/ha: 15.625 g ai/ha; for pest or weed control at 15.625 g/ha / pest or weed control at 250 g/ha: read-out: Velvetleaf damage rating (100=total damage to plant; 0=no damage to plant); for pest or weed control at 62.5 g/ha: 62.5 g ai/ha, 100=total damage to plant, 0=no damage to plant, read-out: plant damage rating, Velvetleaf; for pest or weed control at 250 g/ha: 250 g ai/ha
Procedure, shortened: as §1

[3] = test system: ivy-leaved morning glory (Ipomoea hederacea); experiment: Test G Pre-Emergence Protocol; conditions: Ipomoea, pre-emergence, 312 h, evaluated after 13 days; for pest or weed control at 15.625 g/ha: 15.625 g ai/ha, read-out: Morning-glory, Ivy-leaved damage rating (100=total damage to plant; 0=no damage to plant); for pest or weed control at 62.5 g/ha: 62.5 g ai/ha, 100=total damage to plant, 0=no damage to plant, read-out: plant damage rating, Morningglory, Ivy-leaved; for pest or weed control at 250 g/ha: 250 g ai/ha, read-out: Morningglory, Ivy-leaved damage rating (100=total damage to plant; 0=no damage to plant)
Procedure, shortened: as §1

[4] = test system: barnyardgrass (Echinochloa crus-galli); experiment: Test G Pre-Emergence Protocol; conditions: Echinochloa crus-galli, pre-emergence, 312 h, evaluated after 13 days; for pest or weed control at 15.625 g/ha: 15.625 g ai/ha, read-out: Barnyard grass damage rating (100=total damage to plant; 0=no damage to plant); for pest or weed control at 62.5 g/ha: 62.5 g ai/ha, 100=total damage to plant, 0=no damage to plant, read-out: plant damage rating, Barnyardgrass; for pest or weed control at 250 g/ha: 250 g ai/ha, read-out: Barnyardgrass damage rating (100=total damage to plant; 0=no damage to plant)
Procedure, shortened: as §1

[5] = test system: corn (Zea mays); experiment: Test G Pre-Emergence Protocol; conditions: Zea mays, pre-emergence, 312 h, evaluated after 13 days; for plant injury at 15.625 g/ha: 15.625 g ai/ha; for plant injury at 15.625 g/ha / plant injury at 250 g/ha: read-out: Corn damage rating (100=total damage to plant; 0=no damage to plant); for plant injury at 62.5 g/ha: 62.5 g ai/ha, 100=total damage to plant, 0=no damage to plant, read-out: plant damage rating, Corn; for plant injury at 250 g/ha: 250 g ai/ha
Procedure, shortened: as §1

[6] = test system: redroot pigweed (Amaranthus retroflexus); experiment: Test G Pre-Emergence Protocol; conditions: Amaranthus retroflexus, pre-emergence, 312 h, evaluated after 13 days; for pest or weed control at 15.625 g/ha: 15.625 g ai/ha; for pest or weed control at 15.625 g/ha / pest or weed control at 250 g/ha: read-out: Pigweed, Redroot damage rating (100=total damage to plant; 0=no damage to plant); for pest or weed control at 62.5 g/ha: 62.5 g ai/ha, 100=total damage to plant, 0=no damage to plant, read-out: plant damage rating, Pigweed, Redroot; for pest or weed control at 250 g/ha: 250 g ai/ha
Procedure, shortened: as §1

[7] = test system: giant foxtail (Setaria faberi); experiment: Test G Post-Emergence Protocol; conditions: Setaria faberi, post-emergence, 312 h; for pest or weed control at 15.625 g/ha: 15.625 g ai/ha, evaluated after 13 days (100=total damage to plant; 0=no damage to plant), read-out: Foxtail, Giant damage rating; for pest or weed control at 62.5 g/ha: 62.5 g ai/ha, read-out: Foxtail, Giant damage rating (100=total damage to plant; 0=no damage to plant); for pest or weed control at 62.5 g/ha / pest or weed control at 250 g/ha: evaluated after 13 days; for pest or weed control at 250 g/ha: 250 g ai/ha, read-out: damage to plant, Foxtail, Giant (100=total damage to plant; 0=no damage to plant)
Procedure, shortened: (§2)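 Eight days post-sowing, plants received a spray of test compound (acetone/water 50:50, 0.5% Tween 20) at 15.625, 62.5 or 250 g/ha. Glasshouse regime thereafter: 24/16 °C, 14 h light, 65% humidity. Assessment after 13 days on a 0–100 damage scale.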

[8] = test system: velvetleaf (Abutilon theophrasti); experiment: Test G Post-Emergence Protocol; conditions: Abutilon theophrasti, post-emergence, 312 h; for pest or weed control at 15.625 g/ha: 15.625 g ai/ha, evaluated after 13 days (100=total damage to plant; 0=no damage to plant), read-out: Velvetleaf damage rating; for pest or weed control at 62.5 g/ha: 62.5 g ai/ha, read-out: Velvetleaf damage rating (100=total damage to plant; 0=no damage to plant); for pest or weed control at 62.5 g/ha / pest or weed control at 250 g/ha: evaluated after 13 days; for pest or weed control at 250 g/ha: 250 g ai/ha, read-out: damage to plant, Velvetleaf (100=total damage to plant; 0=no damage to plant)
Procedure, shortened: as §2

[9] = test system: ivy-leaved morning glory (Ipomoea hederacea); experiment: Test G Post-Emergence Protocol; conditions: Ipomoea, post-emergence, 312 h; for pest or weed control at 15.625 g/ha: 15.625 g ai/ha, evaluated after 13 days (100=total damage to plant; 0=no damage to plant), read-out: Morningglory, Ivy-leaved damage rating; for pest or weed control at 62.5 g/ha: 62.5 g ai/ha, read-out: Morningglory, Ivy-leaved damage rating (100=total damage to plant; 0=no damage to plant); for pest or weed control at 62.5 g/ha / pest or weed control at 250 g/ha: evaluated after 13 days; for pest or weed control at 250 g/ha: 250 g ai/ha, read-out: damage to plant, Morningglory, Ivy-leaved (100=total damage to plant; 0=no damage to plant)
Procedure, shortened: as §2

[10] = test system: barnyardgrass (Echinochloa crus-galli); experiment: Test G Post-Emergence Protocol; conditions: Echinochloa crus-galli, post-emergence, 312 h; for pest or weed control at 15.625 g/ha: 15.625 g ai/ha, evaluated after 13 days (100=total damage to plant; 0=no damage to plant), read-out: Barnyardgrass damage rating; for pest or weed control at 62.5 g/ha: 62.5 g ai/ha, read-out: Barnyardgrass damage rating (100=total damage to plant; 0=no damage to plant); for pest or weed control at 62.5 g/ha / pest or weed control at 250 g/ha: evaluated after 13 days; for pest or weed control at 250 g/ha: 250 g ai/ha, read-out: damage to plant, Barnyardgrass (100=total damage to plant; 0=no damage to plant)
Procedure, shortened: as §2

[11] = test system: corn (Zea mays); experiment: Test G Post-Emergence Protocol; conditions: Zea mays, post-emergence, 312 h; for plant injury at 15.625 g/ha: 15.625 g ai/ha, evaluated after 13 days (100=total damage to plant; 0=no damage to plant), read-out: Corn damage rating; for plant injury at 62.5 g/ha: 62.5 g ai/ha, read-out: Corn damage rating (100=total damage to plant; 0=no damage to plant); for plant injury at 62.5 g/ha / plant injury at 250 g/ha: evaluated after 13 days; for plant injury at 250 g/ha: 250 g ai/ha, read-out: damage to plant, Corn (100=total damage to plant; 0=no damage to plant)
Procedure, shortened: as §2

[12] = test system: redroot pigweed (Amaranthus retroflexus); experiment: Test G Post-Emergence Protocol; conditions: Amaranthus retroflexus, post-emergence, 312 h; for pest or weed control at 15.625 g/ha: 15.625 g ai/ha, evaluated after 13 days (100=total damage to plant; 0=no damage to plant), read-out: Pigweed, Redroot damage rating; for pest or weed control at 62.5 g/ha: 62.5 g ai/ha, read-out: Pigweed, Redroot damage rating (100=total damage to plant; 0=no damage to plant); for pest or weed control at 62.5 g/ha / pest or weed control at 250 g/ha: evaluated after 13 days; for pest or weed control at 250 g/ha: 250 g ai/ha, read-out: damage to plant, Pigweed, Redroot (100=total damage to plant; 0=no damage to plant)
Procedure, shortened: as §2

| Compound | pest or weed control at 15.625 g/ha [1] [%] | pest or weed control at 62.5 g/ha [1] [%] | pest or weed control at 250 g/ha [1] [%] | pest or weed control at 15.625 g/ha [2] [%] | pest or weed control at 62.5 g/ha [2] [%] | pest or weed control at 250 g/ha [2] [%] | pest or weed control at 15.625 g/ha [3] [%] | pest or weed control at 62.5 g/ha [3] [%] | pest or weed control at 250 g/ha [3] [%] | pest or weed control at 15.625 g/ha [4] [%] | pest or weed control at 62.5 g/ha [4] [%] | pest or weed control at 250 g/ha [4] [%] | plant injury at 15.625 g/ha [5] [%] | plant injury at 62.5 g/ha [5] [%] | plant injury at 250 g/ha [5] [%] | pest or weed control at 15.625 g/ha [6] [%] | pest or weed control at 62.5 g/ha [6] [%] | pest or weed control at 250 g/ha [6] [%] | pest or weed control at 15.625 g/ha [7] [%] | pest or weed control at 62.5 g/ha [7] [%] | also measured |
| --- | --- | --- | --- | --- | --- | --- | --- | --- | --- | --- | --- | --- | --- | --- | --- | --- | --- | --- | --- | --- | --- |
| CN1C[C@@H](c2ccc(C(F)(F)F)cc2)[C@H](C(=O)Nc2cc(Cl)nc(Cl)c2)C1=O (racemic) [Compound 1519] | 0 | 0 | 0 | 0 | 0 | 0 | 0 | 0 | 0 | 0 | 0 | 0 | 0 | 0 | 0 | 0 | 0 | 0 | 0 | 0 | pest or weed control at 250 g/ha [7]: 0%; pest or weed control at 15.625 g/ha [8]: 0%; pest or weed control at 62.5 g/ha [8]: 0%; pest or weed control at 250 g/ha [8]: 0%; pest or weed control at 15.625 g/ha [9]: 0%; pest or weed control at 62.5 g/ha [9]: 0%; pest or weed control at 250 g/ha [9]: 0%; pest or weed control at 15.625 g/ha [10]: 0%; pest or weed control at 62.5 g/ha [10]: 0%; pest or weed control at 250 g/ha [10]: 0%; plant injury at 15.625 g/ha [11]: 10%; plant injury at 62.5 g/ha [11]: 10%; plant injury at 250 g/ha [11]: 0%; pest or weed control at 15.625 g/ha [12]: 0%; pest or weed control at 62.5 g/ha [12]: 0%; pest or weed control at 250 g/ha [12]: 0% |
| Cc1nccc(NC(=O)[C@@H]2C(=O)N(C)C[C@H]2c2ccc(C(F)(F)F)cc2)c1C (racemic) [Compound 1630] | 0 | 0 | 0 | 0 | 0 | 0 | 0 | 0 | 0 | 0 | 0 | 0 | 0 | 0 | 0 | 0 | 0 | 0 | 0 | 0 | pest or weed control at 250 g/ha [7]: 0%; pest or weed control at 15.625 g/ha [8]: 0%; pest or weed control at 62.5 g/ha [8]: 0%; pest or weed control at 250 g/ha [8]: 0%; pest or weed control at 15.625 g/ha [9]: 0%; pest or weed control at 62.5 g/ha [9]: 0%; pest or weed control at 250 g/ha [9]: 0%; pest or weed control at 15.625 g/ha [10]: 0%; pest or weed control at 62.5 g/ha [10]: 0%; pest or weed control at 250 g/ha [10]: 0%; plant injury at 15.625 g/ha [11]: 0%; plant injury at 62.5 g/ha [11]: 0%; plant injury at 250 g/ha [11]: 0%; pest or weed control at 15.625 g/ha [12]: 0%; pest or weed control at 62.5 g/ha [12]: 0%; pest or weed control at 250 g/ha [12]: 0% |
| Cc1cc(C(F)(F)F)ccc1NC(=O)[C@H]1C(=O)N(C)C[C@@H]1c1ccc(C(F)(F)F)cc1 (racemic) [Compound 1411] | 0 | 0 | 0 | 0 | 0 | 0 | 0 | 0 | 0 | 0 | 0 | 0 | 0 | 0 | 0 | 0 | 0 | 0 | 0 | 0 | pest or weed control at 250 g/ha [7]: 0%; pest or weed control at 15.625 g/ha [8]: 0%; pest or weed control at 62.5 g/ha [8]: 0%; pest or weed control at 250 g/ha [8]: 0%; pest or weed control at 15.625 g/ha [9]: 0%; pest or weed control at 62.5 g/ha [9]: 0%; pest or weed control at 250 g/ha [9]: 0%; pest or weed control at 15.625 g/ha [10]: 0%; pest or weed control at 62.5 g/ha [10]: 0%; pest or weed control at 250 g/ha [10]: 0%; plant injury at 15.625 g/ha [11]: 0%; plant injury at 62.5 g/ha [11]: 0%; plant injury at 250 g/ha [11]: 0%; pest or weed control at 15.625 g/ha [12]: 0%; pest or weed control at 62.5 g/ha [12]: 0%; pest or weed control at 250 g/ha [12]: 0% |
